Experimental data taken from patent US20080090812A1 (priority 2004, published 2008).
Entries after “also recorded” stand apart in the source; their conditions may differ. Where a SMILES comes first, the peptide text is derived from it. The star is where a group is joined. Cbz = O=C(OCc1ccccc1)*; CH2F = FC*

What was measured:
caspase-3 = test: SJG-136 induced caspase-3 activation in B-CLL cells (PhiPhiLux G1D2 substrate, flow cytometry); type: cell-based, human; details: inhibitor final concentration 2 μM, SJG-136-treated B-CLL cell cultures
Experimental: B-CLL cells were incubated at 37° C. in a humidified 5% carbon dioxide atmosphere in the presence of SJG-136 (10^−10−10^−7 M) or fludarabine (10^−7″10^−5 M) for 12, 24 and 48 h. Cells were then harvested by centrifugation and labeled with CD19 RPE-cy5 conjugated antibody. Subsequently the cells were incubated for 1 h at 37° C. in the presence of the PhiPhiLux™ G1D2 substrate (Calbiochem, Nottingham, UK). The substrate contains two fluorophores separated by a quenching linker sequence that is cleaved by active caspase-3. Once cleaved the resulting products fluoresce green and can be quantified using flow cytometry. In additional experiments the caspase-8 inhibitor, Z-IETD-FMK, or the caspase-9 inhibitor, Z-LEHD-FMK, (Cambridge Bioscience, Cambridge, UK) were added to SJG-136-treated cell cultures (final concentration 2 μM) in order to determine whether either of these inhibitors was able to abrogate the apoptotic effects of SJG-136 in B-CLL cells.

GADD45 = test: Intracellular staining of GADD45 expression in B-CLL cells by flow cytometry; type: cell-based, human; details: B-CLL cells versus no-drug control (FIG. 4b)
Experimental: (§1) B-CLL cells were cultured for 4h and 48h in the presence or absence of one of the drugs under investigation. Cells were harvested by centrifugation and incubated with 10 μL of anti-CD19-RPE-cy5 conjugated antibody. Subsequently the cells were washed with phosphate buffered saline (PBS) at pH 7.2 and then prepared for intracellular staining of phosphorylated p53 and GADD45 (Santa Cruz Biotechnology, Santa Cruz, Calif.) using a commercially available kit (DAKO, Ely, UK). A FITC-labeled secondary antibody was added to the cells (DAKO) and after a final washing step the cells were resuspended in 0.5 mL of 1% paraformaldehyde prior to flow cytometric analysis using a FACScan flow cytometer (Becton Dickinson, Calif.).
(§2) Phosphorylation of p53 and expression of GADD45 were measured in control B-CLL cell samples with no cytotoxic agent added and in B-CLL cell samples in the presence of either chloambucil or SJG-136.

B-CLL cells [1] = test: Flow cytometry-based in vitro apoptosis assay (FSC/SSC, Annexin V) in primary B-CLL cells; type: cell-based, human; details: for degree of apoptosis in the cell culture: B-CLL cultures of the p53/GADD45 experiment (FIG. 4b); for mean LD50 in previously treated versus untreated patient sub-set: 34 patient cohort (FIG. 5)
Excerpt: Peripheral blood samples from 34 patients with B-CLL (20 untreated and 14 treated) and 10 age-matched normal controls were obtained with the patients' informed consent. B-CLL was defined by clinical criteria as well as cellular morphology and the co-expression of CD19 and CD5 in lymphocytes simultaneously displaying restriction of light-chain rearrangement. Staging was based on the Binet classification system.^14 None of the previously treated patients had received therapy for at least three months prior to this study.
Freshly isolated peripheral blood lymphocytes (1×10^6/ml) were cultured in Eagles medium (Invitrogen, Paisley, UK) supplemented with 100 units/ml penicillin, 100 μg/ml streptomycin and 10% fetal calf serum. Lymphocytes were incubated at 37° C. in a humidified 5% carbon dioxide atmosphere in the presence of SJG-136 (10^−10−10^−7 M). […]
In this study changes in forward light scatter (FSC) and side light scatter (SSC) characteristics were used to quantify apoptotic and viable cell populations as described previously.^16-18 Typically, lymphocytes show a reduction in FSC (a function of cytoplasmic shrinkage) and an increase in SSC (due to increased granularity) when they undergo apoptosis.^19 The quantitation of apoptosis using an FSC/SSC gating strategy in conjunction with back gating of R-phycoerythrin cyanine 5 (RPE-cy5) labeled CD19+ (Dako) or R-phycoerythrin labeled CD3+ (Dako) lymphocytes allowed simultaneous acquisition of data in viable and apoptotic B-lymphocyte and T-lymphocyte sub-populations, respectively. All LD50 and LD90 values (the concentration of the relevant chemotheraputic agent required to kill 50% and 90% of cells respectively) were derived from the dose-response curves. Duplicate samples were assessed using fluorescein (FITC)-labeled Annexin V to confirm the presence of apoptotic cells in the cell cultures and to validate the FSC/SSC quantitation method.^20
The data obtained in these experiments were evaluated using the equal variance and paired Student's t-test, and correlation coefficients were calculated from least squares linear regression plots. LD50 values were calculated from line of best-fit analysis of the dose response curves. All statistical analyses were performed using Graphpad Prism 3.0 software (Graphpad Software Inc., San Diego, Calif.).
A flow cytometry-based in vitro apoptosis detection assay was used to determine whether SJG-136 could induce apoptotic cell death in B-CLL cells. The characteristic changes in the forward and side light scatter resulting from cellular shrinkage described previously were used to define apoptosis.^19 In addition, Annexin V labeling was also performed in order to verify the light scatter data.

phosphorylated p53 = test: Intracellular staining of phosphorylated p53 in B-CLL cells by flow cytometry; type: cell-based, human; details: 10 μM chlorambucil or 25 nM SJG-136, versus no-drug control (FIG. 4a)
Experimental: as §1, §2

B-CLL cells [2] = test: Flow cytometry-based in vitro apoptosis assay (FSC/SSC, Annexin V) in primary B-CLL cells; type: cell-based, human; details: for mean LD50 in previously treated versus untreated patient sub-set: expanded cohort of 46 patients (FIG. 10)
calf thymus DNA = details: after incubation for 18 hours at 37° C.; cited from earlier work
[3] = expanded cohort, 46 B-CLL patient samples
[4] = 34 B-CLL patient samples, 48 h exposure

Compound | abrogation of SJG-136-induced caspase-3 activation by added caspase inhibitor (caspase-3) | GADD45 expression (GADD45) | degree of apoptosis in the cell culture (B-CLL cells [1]) | phosphorylated p53 (p-p53) (phosphorylated p53) | mean LD50 in previously treated versus untreated patient sub-set (B-CLL cells [2]) | mean LD50 in previously treated versus untreated patient sub-set (B-CLL cells [1]) | further results
COC(=O)CC[C@H](NC(=O)[C@H](CC(C)C)NC(=O)OCc1ccccc1)C(=O)N[C@@H](Cc1cnc[nH]1)C(=O)N[C@@H](CC(=O)OC)C(=O)CF [Z-LEHD-FMK] (Cbz-LE(OMe)HD(OMe)-CH2F) | partially abrogated |  |  |  |  |  | 
O=C(O)CCCc1ccc(N(CCCl)CCCl)cc1 [chlorambucil] |  | much higher; also recorded: marked increase in GADD45 expression | significantly increased over the control experiment | an increase in phosphorylated p53 |  |  | 
CC[C@H](C)[C@H](NC(=O)OCc1ccccc1)C(=O)N[C@@H](CCC(=O)OC)C(=O)N[C@H](C(=O)N[C@@H](CC(=O)OC)C(=O)CF)[C@@H](C)O [Z-IETD.FMK, Z-IETD-FMK] (Cbz-IE(OMe)TD(OMe)-CH2F) | not |  |  |  |  |  | 
Nc1nc(F)nc2c1ncn2[C@@H]1O[C@H](CO)[C@@H](O)[C@@H]1O [fludarabine, reference compound] |  |  |  |  | significantly higher mean LD50 value | significantly higher mean LD50 value | in vitro sensitivity of samples from two treated patients with known p53 mutation (B-CLL cells [1]; compared with remaining patient samples): high degree of in vitro resistance
C=C1C[C@H]2C=Nc3cc(OCCCOc4cc5c(cc4OC)C(=O)N4CC(=C)C[C@H]4C=N5)c(OC)cc3C(=O)N2C1 [SJG-136] |  | only slightly higher than in the control experiment | greater degree of apoptosis than either the control experiment or the chlorambucil experiment | none of the B-CLL cells (n=9) treated with SJG-136 phosphorylated p53 | no effect | no effect | patient samples in which apoptosis was induced (B-CLL cells [2]; 46 patient cohort): all 46 patient samples; mean LD50 value (±SD) (B-CLL cells [2]; [3]): 0.19 nM; mean LD90 value (±SD) (B-CLL cells [2]; [3]): 38.63 nM; mean LD50 value (±SD) (B-CLL cells [1]; [4]): 9.06 nM; mean LD90 value (±SD) (B-CLL cells [1]; [4]): 43.09 nM; patient samples in which apoptosis was induced (B-CLL cells [1]; 34 patient cohort): all 34 patient samples; increase in the thermal denaturation of calf thymus DNA (calf thymus DNA): 33.6 °C
